Read-outs that look alike come from different tables or passages of the source.
Experiments:
HCT116 WT cells = test: MTT assay, chemotherapeutic drug gradient with or without disruptor; assay type: cell-based; conditions: for EC50: MTT, 72 hours
Protocol: (§1) The three resistant lines and their wildtype counterpart HCT116 were exposed to a gradient of CPT, CDDP or 1-OHP.
(§2) Concentrations of CPT used: 0.140 nM, 20 nM, 50 nM, 1000 nM. Concentration of 1-OHP: 0.14 μM, 2 μM, 4 μM, 6 μM, 8 μM. Concentrations of CDDP used: 0.140 μM, 2 μM, 5 μM, 10 μM. The percentage of viable cells were determined by MTT assays (FIG. 12A-12C). The data in FIG. 12A and FIG. 12C is from three independent experiments and the data in FIG. 12B is from nine independent experiments. […] The levels of MRP2, MRP3, MRP5, MXR were quantitated from three independent experiments. […] Specifically, HCT116 IC60 CPTR cells were transfected with the HR substrate for 72 hours and the levels of HR was determined (FIG. 6A). The data is from three independent experiments. […] The number of soft agar colonies in each condition were counted. The data is from three independent experiments.
To generate camptothecin and cisplatin resistant cells (named as HCT116 IC60 CPT^R, HCT116 IC60 CDDP^R respectively), HCT116 wild type were seeded in a 10 cm dish to a confluency of 80%. The IC20 concentrations of cisplatin (3.38 μM) and camptothecin (12.6 nM) was added for 2 hours and 6 hours, respectively. Post treatment, the cells were washed twice with 1×PBS and fresh media was added. After every 48 hours, the media was changed and IC20 concentration of the drugs were added only if the confluency of cells was at least 80%. […] Resistant index was calculated using the following formula: Resistant index=IC60 of the resistant cells/IC60 of the parental cells.
Cells were seeded in a 96-well plate overnight. Next day, the culturing media was replaced with Optimem media, followed by incubation with BLM_CPP or SCM_CPP for 1 hr. The final concentrations of the peptides were 450 nM for cisplatin (CDDP) and 180 nM (for all other drugs). […] Post treatment, the cells were washed with 1×PBS and fresh media was added. After 72 hours, MTT assay was carried out to determine the percentage cell viability of the cells with respect to the untreated cells.

HCT116 IC60 1-OHPR cells = conditions: read-out: EC50 (μM), HCT116 1-OHP^R + 1-OHP; 1-OHP gradient alone, MTT, 72 hours
Protocol: as §1, §2
(§3) To generate camptothecin and cisplatin resistant cells (named as HCT116 IC60 CPT^R, HCT116 IC60 CDDP^R respectively), HCT116 wild type were seeded in a 10 cm dish to a confluency of 80%. The IC20 concentrations of cisplatin (3.38 μM) and camptothecin (12.6 nM) was added for 2 hours and 6 hours, respectively. […] Resistant index was calculated using the following formula: Resistant index=IC60 of the resistant cells/IC60 of the parental cells. […]

HCT116 IC60 CDDPR cells = test: MTT assay, CDDP gradient with or without disruptor; assay type: cell-based; conditions: CDDP gradient alone, 72 hours, read-out: EC50 (μM), HCT116 WT CDDP^R
Protocol: as §1, §2, §3

[1] = HCT116, used to generate resistant cells

SMILES | EC50 (HCT116 WT cells; 1-OHP gradient alone, read-out: EC50 (μM), HCT116 WT + 1-OHP) | EC50 (HCT116 IC60 1-OHPR cells) | EC50 (HCT116 WT cells; CDDP gradient alone, read-out: EC50 (μM), HCT116 WT) | IC40 concentration (HCT116 WT cells; [1]) | IC60 concentration (HCT116 WT cells; [1]) | IC20 (HCT116 WT cells; HCT116 wild type, used to generate resistant cells, read-out: IC20 concentration) | EC50 (HCT116 IC60 CDDPR cells)
N[C@@H]1CCCC[C@H]1N.O=C([O-])C(=O)[O-].[Pt+2] [1-OHP, oxaliplatin] | 4.77 µM | 14.1 µM | – | – | – | – | –
[NH2][Pt]([NH2])([Cl])[Cl] [CDDP, cisplatin] | – | – | 3.78 µM | 15.5 µM | 35.09 µM | 3.38 µM | 21.7 µM
